Results taken from patent publication US20220163532A1, “NUCLEAR-DERIVED EXOSOMES AND METHODS OF USE THEREOF” (Board of Regents, The University of Texas System, priority 2019, published 2022).

Tested on: ovarian cancer cells
Assay: Nuclear proteins in exosomes from drug-treated ovarian cancer cells (Western blot)
Assay type: cell-based, human
Conditions: topotecan 10 nM or olaparib 20 μM
Method: Isolation of exosomes. The isolation method for exosomes that was used in this study followed the standard methods of the International Society of Extracellular Vesicles (Witwer et al., 2013). Cell lines described above were grown in the corresponding medium described above until 60 to 70% confluence was achieved. Cells were then washed twice with phosphate-buffered saline (PBS) and grown in corresponding medium containing 1% exosome-free FBS (EXO-FBS-250A-1, System Biosciences) plus 0.1% gentamicin for 48 hours. For exosome isolation, the harvested medium underwent serial centrifugation. First, the medium was spun down at 500g for 10 min to pellet any floating cells. Next, the supernatant was collected and spun down at 2000g for 30 min to pellet any residual cell debris. The resulting supernatant was then filtered through a 0.22-μm filter (SCGPUO5RE and SLGP033RS, Millipore-Sigma) to remove any remaining large vesicles. After filtration, the medium was spun down at 40,000 rpm for 2 hours at 4° C. in an ultracentrifuge (Optima XE, Beckman Coulter) with a Ti 45 fixed-angle rotor (339160, Beckman Coulter). […] Exosome concentration and quantity were determined using NTA with a NanoSight NS300 instrument (Malvern Panalytical).
Western blotting. […] Protein concentration was determined using the Micro BCA Protein Assay Kit (23235, Thermo Fisher Scientific) according to the manufacturer's protocol. […]

Q: For `CC[C@@]1(O)C(=O)OCc2c1cc1n(c2=O)Cc2cc3c(CN(C)C)c(O)ccc3nc2-1` [topotecan], which “population of exosomes containing nuclear proteins” value is on record?
A: increased
